# In patent EP4810497A1, “ISOQUINOLINE DERIVATIVE, SYNTHESIS METHOD THEREFOR, AND USE THEREOF” (Harbin Gloria Pharmaceuticals Co., Ltd., priority 2023, dated 2025):
# Where two headings read alike, the source gives them in different places.
# Key:
# Pgk1 [1] = target: T1, Pgk1 (Homo sapiens, UniProt P00558); experiment: Affinity for Pgk1 protein (Biacore T200 chip); type: binding; conditions: for Rmax: amount of drug bound to the target protein when the affinity was detected
# T1 sequence (P00558 1-417): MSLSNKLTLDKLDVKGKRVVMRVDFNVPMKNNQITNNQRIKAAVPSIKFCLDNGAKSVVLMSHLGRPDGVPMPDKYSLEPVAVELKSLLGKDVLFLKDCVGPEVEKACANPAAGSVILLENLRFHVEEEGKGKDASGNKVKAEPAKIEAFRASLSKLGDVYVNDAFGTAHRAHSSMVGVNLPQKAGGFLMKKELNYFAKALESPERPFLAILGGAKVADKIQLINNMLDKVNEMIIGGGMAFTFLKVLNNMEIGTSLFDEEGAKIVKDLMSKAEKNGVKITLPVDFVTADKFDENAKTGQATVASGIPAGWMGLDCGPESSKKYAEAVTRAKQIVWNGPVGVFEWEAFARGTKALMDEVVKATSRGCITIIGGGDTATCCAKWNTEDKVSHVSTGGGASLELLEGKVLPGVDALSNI
# Procedure: Purified Pgk1 protein (with a concentration of 1 mg/mL) was immobilized on a Biacore T200 chip. […] The obtained curves can calculate parameters such as affinity and Rmax.
# Wild-type mice (C57BL/6) = experiment: Blood glucose in normal mice in vivo; conditions: 0.1 mg/kg intraperitoneally, fasted 6 hours after administration
# Procedure: Wild-type mice (C57BL/6) aged 3 months to 4 months under normal feeding conditions were intraperitoneally injected with different drugs at 0.1 mg/kg. Mice injected with normal saline served as the control group. Mice were fasted for 6 hours after administration. Blood was collected from the tail of each mouse to measure blood glucose levels. Each group consisted of 9 mice.
# [2] = system: MPTP-induced Parkinson's disease model mice; experiment: Rotarod motor ability in MPTP-induced Parkinson's disease model; type: in vivo; conditions: day 7 after MPTP injection
# Procedure: (§1) Male mice aged 3 months were used and fed normally. The acute MPTP modeling method (see Sonsalla PK, Heikkila RE. The influence of dose and dosing interval on MPTP-induced dopaminergic neurotoxicity in mice. Eur J Pharmacol 1986; 129(3): 339-45.) was employed. MPTP was injected intraperitoneally four times in total at a dose of 20 mg/kg body weight per injection, with a 2-hour interval between each injection. MPTP was dissolved in normal saline, and the control group received an equal dose of normal saline. T2 was dissolved in DMSO and diluted with normal saline to the desired concentration. Accordingly, equal doses of DMSO and normal saline were administered during the treatment. On the day of MPTP model establishment, mice were administered either T2 (treatment group) or DMSO (control group). Subsequently, mice in all groups were administered the corresponding drugs daily. Mouse behavior was tested using a rotarod (E103, UGO BASILE). First, mice were pre-trained for two consecutive days at a constant speed of 15 revolutions per minute (15 rpm) until they could stay on the rod for more than 60 seconds. […] The latency to fall from the rotarod was recorded, and the behavior was monitored by a camera. […] Therefore, whether dopaminergic neurons were damaged can be determined by Western blot assay using an anti-TH antibody.
# [3] = system: Tyrosine hydroxylase (TH); experiment: Striatal tyrosine hydroxylase Western blot in MPTP-induced Parkinson's disease model; type: in vivo, mice; conditions: 0.1 mg/Kg, striatal tissue
# Procedure: as §1
# SK-N-SH cells = experiment: Cellular ATP levels (Promega ATP assay kit); type: cell-based, human; conditions: for cell growth: 50 µM; for optimal dose (cellular ATP levels): doses of 5 µM, 10 µM and 50 µM; for optimal dose (cellular ATP levels) / activity in increasing cellular ATP: 48 hours; for activity in increasing cellular ATP: SK-N-SH cells, 10 µM, 5% O2, untreated control defined as 1 (FIG. 1)
# Procedure: Human Neuroblastoma Cell Line (SK-N-SH) is a human-derived neuroblastoma cell line. SK-N-SH cells were seeded in a 6-well plate at a density of 6×10^4 cells per well. The cells were cultured for 12 hours under 5% O2. Various drugs at a concentration of 10 µM were added. After 48 hours, the cells were harvested. Celluar ATP levels were measured using the Promega ATP assay kit. The experiment was repeated 6 times to 10 times. The experimental results were illustrated in FIG. 1. […] T1 to T11 were the experimental groups.
# SK-N-SH cells were seeded in a 6-well plate at a density of 6×10^4 per well. Cells were cultured for 12 hours under 5% O2, and the drug was added. Cells were harvested after 48 hours. Cellular ATP levels were measured using a Promega ATP assay kit. The experiment was repeated 5 times to 7 times.
# Pgk1 [4] = target: T1, Pgk1; experiment: In vitro biochemical Pgk1 enzymatic activity (NADH production, absorbance 339 nm); design: made in house; host or cells: E. coli BL21(DE3); conditions: for optimal concentration for activating Pgk1: purified Pgk1-His 2 µg/mL, 10 minutes at room temperature
# Procedure: Human Pgk1 cDNA was cloned into the pEASYTM-E2 vector (TransGen Biotech) containing a His tag. Protein expression was induced in BL21(DE3) chemocompetent cells (TransGen Biotech) with 0.5 mM IPTG. After lysing cells in extraction buffer (20 mM sodium phosphate, 500 mM NaCl, 5 mM imidazole, 5% glycerol, protease inhibitor cocktail, pH 7.9), the supernatant was purified with nickel beads (AdarBiotech). The His-tagged Pgk1 was eluted with the elution buffer (20 mM sodium phosphate, 500 mM NaCl, 80 mM imidazole, protease inhibitor cocktail, pH 7.9). The activity of Pgk1 can be measured by monitoring the rate of NADH production, as NADH accumulated as the reaction proceeded. Purified Pgkl-His protein (2 µg/mL) was added to the reaction buffer (20 mM Tris, 100 mM NaCl, 2 mM DTT, 0.1 mM MgSO4, 10 mM NaHPO4, pH 8.6), and the substrates (1.6 mM GAP, 1 mM β-NAD, 1 mM ADP, 20 ng/µL GAPDH) was added. […] After reaction for 10 minutes at room temperature, the absorbance wavelength at 339 nm was measured using a microplate reader (Molecular Devices, SpectraMax i3x), and this wavelength corresponds to NADH levels.
# db/db mice [5] = experiment: Long-term hypoglycemic and weight-loss effects in diabetic model mice, drinking water; type: in vivo; conditions: 7 days, T6 1.5 mg/kg
# Procedure: After 7 days of treatment, changes in glycated hemoglobin (HbA1c) level, insulin level in mouse blood, and body weight, were measured.
# db/db mice [6] = experiment: Hypoglycemic effect in diabetic model mice, intraperitoneal injection; type: in vivo; conditions: 4 hours later
# Procedure: Gene knockout db/db mice are a classic model of hyperglycemia and obesity. Under normal feeding conditions, mice aged 3 months or older developed hyperglycemia and obesity. After the mice were provided with only drinking water (fasted) for 6 hours, blood was collected from the tail of the mice to measure blood glucose values. Subsequently, different drugs, including saline (control), liraglutide at 0.6 mg/Kg, low-concentration T6 (T6 low, 0.1 mg/Kg), and high-concentration T6 (T6 high, 0.5 mg/Kg), were injected intraperitoneally. 4 hours later, blood was collected from the tail of the mice to measure the blood glucose levels. Each group consisted of 6 mice. Blood glucose levels before administration (Vbefore) and after administration (Vafter) were obtained for each mouse. The effect of the drug on blood glucose (%) was calculated as follows: (Vbefore−Vafter) × 100/Vbefore . [formula]
# [7] = system: stable Pgk1-knockdown SK-N-SH cell line; experiment: Mitochondrial respiration (Seahorse) in Pgk1-knockdown cells; type: cell-based, human; conditions: 10 µM, shPgk1 knockdown cells
# Procedure: Cellular mitochondrial stress was detected using a Seahorse XFe analyzer (XFe-24, Seahorse Bioscience, Billerica, MA, UAS) to measure the oxygen consumption rate (OCR). SH-SKN cell lines were seeded in a 24-well plate compatible with the Seahorse XFe analyzer. After 24 hours, cells were treated with DMSO (0.01%) or various drugs (10 µM). Cellular mitochondrial stress was detected 12 hours after drug treatment. For the mitochondrial stress test, 97.2 mL of Seahorse basal medium (Seahorse Bioscience, Billerica, MA, UAS) was taken and heated in a water bath to 37°C, and 1 mL of a stock solution was added. The stock solution was prepared by mixing the following solutions: 1 mL of 200 mM L-glutamine solution (Sigma), 1 mL of 100 mM pyruvate solution (Sigma), and 800 µL of 2.5 M glucose solution, and the pH of the stock solution was adjusted to 7.4 with 1 M NaOH solution. Before detection, the probe plate was taken out, and 1 mL of XF Carlibrant solution (Seahorse Bioscience) was added to the probe plate. The plate was then incubated overnight in a CO2-free constant temperature incubator at 37°C. After drug treatment, the cells were removed and washed twice with preheated Seahorse basal medium at 37°C, ensuring that 500 µL of Seahorse basal medium remained in each well. The cells were incubated in a CO2-free constant temperature incubator at 37°C for 1 hour. […]
# Pgk1 [8] = target: T1, Pgk1; conditions: cited from earlier work
# α1 adrenergic receptor = conditions: cited from earlier work
# [9] = Pgk1 immobilized on Biacore T200 chip, read-out: Affinity
compound,measurement,setting,value
Nc1nc(N2CCN(C(=O)[C@@H]3CCCN3)CC2)cc2cc3c(cc12)OCO3 [Compound T9],Kd,Pgk1 [1]; [9],811 µM
same,Rmax,Pgk1 [1],87 RU
Nc1nc(N2CCN(C(=O)C3CCCC3)CC2)cc2cc3c(cc12)OCO3 [Compound T7],Kd,Pgk1 [1]; [9],878 µM
"COc1cc2nc(N3CCN(C(=O)C4CCCO4)CC3)nc(N)c2cc1OC (centres unmarked) [Terazosin, terazosin, reference compound]",hypoglycemic effect (blood glucose),Wild-type mice (C57BL/6),did not exhibit a hypoglycemic effect
same,motor ability (rotarod),[2]; 0.1 mg/Kg daily,improved the motor ability
same,tyrosine hydroxylase protein levels / effect on dopaminergic neurons,[3],protective effect on dopaminergic neurons
same,cell growth,SK-N-SH cells,tendency to inhibit cell growth
same,optimal dose (cellular ATP levels),SK-N-SH cells,10 µM
same,inhibition of Pgk1 enzymatic activity,"Pgk1 [4]; high concentration, 100 µM",can inhibit Pgk1 enzymatic activity
same,optimal concentration for activating Pgk1,Pgk1 [4],1 µM
Nc1nc(N2CCN(C(=O)c3ccco3)CC2)cc2cc3c(cc12)OCO3 [Compound T11],Kd,Pgk1 [1]; [9],> 1000 µM
same,Rmax,Pgk1 [1],None
same,activity in increasing cellular ATP,SK-N-SH cells,no such activity of increasing cellular ATP
CC1(C)Oc2cc3cc(N4CCN(C(=O)[C@H]5CCCO5)CC4)nc(N)c3cc2O1 [Compound T4],Kd,Pgk1 [1]; [9],725 µM
same,Rmax,Pgk1 [1],75 RU
Nc1nc(N2CCN(C(=O)[C@H]3CCCN3)CC2)cc2cc3c(cc12)OCO3 [Compound T8],Kd,Pgk1 [1]; [9],473 µM
same,Rmax,Pgk1 [1],87 RU
Nc1nc(N2CCN(C(=O)[C@H]3CCCO3)CC2)cc2cc3c(cc12)OCC3 [Compound T6],body weight,db/db mice [5],significant decrease in body weight
same,glycated hemoglobin (HbA1c) level,"db/db mice [5]; terazosin 0.3 mg/kg, metformin 350 mg/kg, versus control group",decrease
same,Kd,Pgk1 [1]; [9],375 µM
same,hypoglycemic effect (blood glucose),db/db mice [6]; high concentration 0.5 mg/kg intraperitoneally,significant hypoglycemic effects
same,hypoglycemic effect (blood glucose),db/db mice [6]; low concentration 0.1 mg/kg intraperitoneally,significant hypoglycemic effects
same,basal respiratory rate,[7],absent
same,maximum respiratory rate,[7],absent
same,cell growth,SK-N-SH cells,tendency to inhibit cell growth
same,optimal dose (cellular ATP levels),SK-N-SH cells,50 µM
same,inhibition of Pgk1 enzymatic activity,Pgk1 [4]; all different concentrations tested,none of the concentrations can inhibit Pgk1
same,optimal concentration for activating Pgk1,Pgk1 [4],0.1 µM
COc1cc2cc(N3CCN(C(=O)C4CCCO4)CC3)nc(N)c2cc1OC (centres unmarked) [TZ-md],effect of activating Pgk1,Pgk1 [8],still retains the effect of activating Pgk1
same,inhibition of the α1 adrenergic receptor,α1 adrenergic receptor,does not inhibit the α1 adrenergic receptor
Nc1nc(N2CCN(C(=O)[C@H]3CCCO3)CC2)cc2cc3c(cc12)OCCO3 [Compound T10],Kd,Pgk1 [1]; [9],> 1000 µM
same,Rmax,Pgk1 [1],None
same,activity in increasing cellular ATP,SK-N-SH cells,no such activity of increasing cellular ATP
Nc1nc(N2CCN(C(=O)[C@H]3CCCO3)CC2)cc2cc3c(cc12)OCO3 [Compound T1],Kd,Pgk1 [1]; [9],496 µM
Nc1nc(N2CCN(C(=O)[C@H]3CCCO3)CC2)cc2cc3c(cc12)CCO3 [Compound T5],Kd,Pgk1 [1]; [9],273 µM
same,Rmax,Pgk1 [1],86 RU
CC1Oc2cc3cc(N4CCN(C(=O)[C@H]5CCCO5)CC4)nc(N)c3cc2O1 (some centres unmarked) [Compound T3],Kd,Pgk1 [1]; [9],684 µM
same,Rmax,Pgk1 [1],93 RU
"Nc1ncnc2c1ncn2[C@@H]1O[C@H](COP(=O)(O)OP(=O)(O)O)[C@@H](O)[C@H]1O [ADP, reference compound]",Rmax,Pgk1 [1],35 RU
same,Kd,"Pgk1 [1]; unit inferred, read-out: KD value",337 µM
liraglutide,hypoglycemic effect (blood glucose),db/db mice [6]; 0.6 mg/Kg intraperitoneally,optimal hypoglycemic effect
Nc1nc(N2CCN(C(=O)[C@@H]3CCCO3)CC2)cc2cc3c(cc12)OCO3 [Compound T2],Kd,Pgk1 [1]; [9],449 µM
same,motor ability (rotarod),"[2]; three doses 0.1 mg/Kg, 0.3 mg/Kg and 1 mg/Kg daily",exerted protective effects
same,tyrosine hydroxylase protein levels / effect on dopaminergic neurons,[3],protective effect on dopaminergic neurons
